The source made the active and inactive calls.
Legend:
[1] = A549 cell cytotoxicity, dose response, cytotoxicity control, plate reader, cherry-pick, antagonist series (AID 743412); format: functional, cell-based
HEK293 [2] = experiment: NOD2 signaling inhibitors in MDP-stimulated cells, cell-based, uHTS, luminescence (AID 2001); format: functional; details: Homo sapiens
[3] = target: Nucleotide-binding oligomerization domain-containing protein 2 (Homo sapiens, UniProt Q9HC29); experiment: inhibition of NOD2-driven NF-kB reporter – cell-based, luminescence, uHTS, HEK293 (AID 1566); format: functional
Sequence of Nucleotide-binding oligomerization domain-containing protein 2 (Q9HC29 whole entry, the tested form may be a part): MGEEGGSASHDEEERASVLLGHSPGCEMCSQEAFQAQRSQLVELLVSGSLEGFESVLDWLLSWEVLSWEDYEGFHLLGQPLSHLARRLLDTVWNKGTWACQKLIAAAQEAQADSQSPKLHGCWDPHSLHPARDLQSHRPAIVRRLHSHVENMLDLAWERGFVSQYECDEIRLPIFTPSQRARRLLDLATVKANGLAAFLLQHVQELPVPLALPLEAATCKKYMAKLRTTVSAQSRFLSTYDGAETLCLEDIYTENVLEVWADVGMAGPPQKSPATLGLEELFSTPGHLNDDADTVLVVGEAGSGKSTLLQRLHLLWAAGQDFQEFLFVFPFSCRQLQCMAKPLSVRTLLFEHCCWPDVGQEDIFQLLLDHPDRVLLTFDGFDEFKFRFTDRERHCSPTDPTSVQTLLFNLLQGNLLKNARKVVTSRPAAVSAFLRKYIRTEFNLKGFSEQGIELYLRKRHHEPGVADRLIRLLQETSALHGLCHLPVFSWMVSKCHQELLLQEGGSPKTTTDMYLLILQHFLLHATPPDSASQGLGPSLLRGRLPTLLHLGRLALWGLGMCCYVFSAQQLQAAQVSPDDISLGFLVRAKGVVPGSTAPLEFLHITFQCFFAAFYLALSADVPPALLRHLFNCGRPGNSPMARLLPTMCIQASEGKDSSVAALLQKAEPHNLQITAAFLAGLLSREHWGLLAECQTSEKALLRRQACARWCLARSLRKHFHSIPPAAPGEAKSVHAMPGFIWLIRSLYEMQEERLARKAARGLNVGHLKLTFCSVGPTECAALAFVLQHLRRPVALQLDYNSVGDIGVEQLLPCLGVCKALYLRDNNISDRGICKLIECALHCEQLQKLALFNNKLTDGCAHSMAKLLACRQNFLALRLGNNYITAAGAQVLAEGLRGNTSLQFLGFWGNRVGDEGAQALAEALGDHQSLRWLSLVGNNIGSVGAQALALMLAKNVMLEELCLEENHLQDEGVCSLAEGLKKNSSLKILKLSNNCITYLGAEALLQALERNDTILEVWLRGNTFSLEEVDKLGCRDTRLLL

HEK293 [4] = experiment: cells; format: functional, cell-based; details: Homo sapiens
[5] = blockers of bursicon-stimulated LGR2 cAMP reporter – cell-based, HEK293, CRE-luciferase reporter, cherry pick, set 2, dose response (AID 743343); format: functional;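 further: transfected cells were stimulated with diluted bursicon conditioned medium after compound addition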
HEK293 [6] = experiment: inhibition of NOD1-driven NF-kB reporter – cell-based, luminescence, uHTS, primary screen (AID 1578); format: functional; details: Homo sapiens
[7] = blockade of melanocortin 4 receptor signaling – cell-based, plate reader, cherry pick, counter-screen for LGR2 antagonist project, dose response (AID 743444); format: functional;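 further: transfected HEK 293 cells stimulated with alpha-MSH peptide; potency of inhibitors of the alpha-MSH evoked signal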
HEK293 [8] = experiment: cells; format: functional, cell-based; details: Homo sapiens; remark: listed apart in the source
HEK293 [9] = experiment: cells; format: functional, cell-based; details: Homo sapiens; remark: listed apart in the source
[10] = potency of ADAM10 substrate cleavage blockers – biochemical, QFRET, dose response (AID 743254);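 further: ADAM10 enzyme with the DM2 quenched FRET peptide as substrate; EDANS fluorescence gain as the protease cuts the substrate; inhibitor potency against ADAM10 proteolytic activity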
[11] = target: Disintegrin and metalloproteinase domain-containing protein 17 (Homo sapiens, UniProt P78536); experiment: inhibition of ADAM17 substrate cleavage – biochemical, quenched FRET substrate, counter-screen for ADAM10 exosite inhibitor project, dose response (AID 743253)
Sequence of Disintegrin and metalloproteinase domain-containing protein 17 (P78536 whole entry, the tested form may be a part): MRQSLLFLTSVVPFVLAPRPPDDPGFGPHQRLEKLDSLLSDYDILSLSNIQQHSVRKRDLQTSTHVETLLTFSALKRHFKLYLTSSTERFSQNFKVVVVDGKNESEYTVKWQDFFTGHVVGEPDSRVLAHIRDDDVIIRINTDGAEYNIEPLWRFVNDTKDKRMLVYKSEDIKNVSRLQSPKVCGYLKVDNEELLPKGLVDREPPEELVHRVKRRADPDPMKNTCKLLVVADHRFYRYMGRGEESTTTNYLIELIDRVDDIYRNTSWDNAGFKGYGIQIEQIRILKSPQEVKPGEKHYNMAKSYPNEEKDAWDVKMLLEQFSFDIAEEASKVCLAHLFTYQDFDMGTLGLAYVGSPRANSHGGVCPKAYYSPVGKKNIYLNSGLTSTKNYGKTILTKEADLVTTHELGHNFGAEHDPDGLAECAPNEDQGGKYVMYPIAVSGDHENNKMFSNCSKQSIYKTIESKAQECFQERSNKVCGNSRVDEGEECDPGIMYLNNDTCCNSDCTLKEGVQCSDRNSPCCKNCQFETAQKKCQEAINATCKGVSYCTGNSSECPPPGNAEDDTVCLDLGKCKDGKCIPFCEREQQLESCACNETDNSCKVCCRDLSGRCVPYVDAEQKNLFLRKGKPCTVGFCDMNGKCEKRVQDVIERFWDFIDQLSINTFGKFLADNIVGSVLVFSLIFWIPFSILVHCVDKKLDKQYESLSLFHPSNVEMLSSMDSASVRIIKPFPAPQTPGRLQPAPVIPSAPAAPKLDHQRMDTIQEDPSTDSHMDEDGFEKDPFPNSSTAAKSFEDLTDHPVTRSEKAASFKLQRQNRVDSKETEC

[12] = microbe, parasite or virus in culture; format: functional; details: Mycobacterium tuberculosis
[13] = target: E3 ubiquitin-protein ligase Mdm2 (Homo sapiens, UniProt Q00987); experiment: MDM2-luc reporter signal enhancers, multi-concentration potency testing, MDM2 ubiquitin-protein ligase inhibitor program, whole-cell format, luminescence detection, 384-well microplate (AID 1394); format: functional;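 further: MDM2 E3 inhibitors raise luminescence so EC50 is for signal enhancement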
Sequence of E3 ubiquitin-protein ligase Mdm2 (Q00987 whole entry, the tested form may be a part): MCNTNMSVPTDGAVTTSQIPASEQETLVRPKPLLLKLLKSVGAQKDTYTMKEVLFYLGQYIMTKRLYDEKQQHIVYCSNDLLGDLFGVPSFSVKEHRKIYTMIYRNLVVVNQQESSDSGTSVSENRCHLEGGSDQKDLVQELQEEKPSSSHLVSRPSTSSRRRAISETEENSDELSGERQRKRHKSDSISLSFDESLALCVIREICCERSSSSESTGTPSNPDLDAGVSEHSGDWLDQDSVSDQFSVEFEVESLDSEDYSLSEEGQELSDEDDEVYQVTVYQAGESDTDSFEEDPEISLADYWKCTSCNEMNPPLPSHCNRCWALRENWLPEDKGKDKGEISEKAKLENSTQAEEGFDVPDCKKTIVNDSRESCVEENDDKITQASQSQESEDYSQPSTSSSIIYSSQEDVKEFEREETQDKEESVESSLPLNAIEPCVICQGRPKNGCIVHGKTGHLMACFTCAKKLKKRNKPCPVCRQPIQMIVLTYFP

[14] = target: T1, Oxysterols receptor LXR-beta (Homo sapiens, UniProt P55055); format: functional, cell-based;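 further: Cell-based luminescence dose-response assay of agonist activity at LXR, run as a confirmatory counterscreen to a daf-12 agonist screen; agonist potency from rising luciferase signal of a Gal4-LXR reporter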
T1 sequence (P55055 whole entry): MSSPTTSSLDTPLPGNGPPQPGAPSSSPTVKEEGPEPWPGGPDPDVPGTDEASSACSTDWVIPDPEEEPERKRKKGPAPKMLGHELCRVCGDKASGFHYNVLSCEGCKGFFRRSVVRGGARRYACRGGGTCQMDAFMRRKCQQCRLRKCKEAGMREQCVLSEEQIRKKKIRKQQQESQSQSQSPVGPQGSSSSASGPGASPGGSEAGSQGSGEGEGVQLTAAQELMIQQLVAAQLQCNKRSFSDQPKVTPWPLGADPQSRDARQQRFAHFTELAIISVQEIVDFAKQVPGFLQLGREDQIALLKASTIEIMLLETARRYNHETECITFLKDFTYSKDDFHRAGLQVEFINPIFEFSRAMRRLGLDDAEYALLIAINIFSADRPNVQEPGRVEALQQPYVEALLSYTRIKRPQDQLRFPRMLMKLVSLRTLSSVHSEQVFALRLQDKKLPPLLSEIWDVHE

[15] = Luminescence Cell-Based Dose Confirmation HTS to Identify Inhibitors of Polyadenylation.; format: functional
Estrogen receptor beta = Estrogen receptor beta (Homo sapiens, UniProt Q92731); experiment: blockers of SRC-3 recruitment to ERβ – biochemical, ELISA, streptavidin-HRP readout, orthogonal assay, confirmation (AID 1060)
Sequence of Estrogen receptor beta (Q92731 whole entry): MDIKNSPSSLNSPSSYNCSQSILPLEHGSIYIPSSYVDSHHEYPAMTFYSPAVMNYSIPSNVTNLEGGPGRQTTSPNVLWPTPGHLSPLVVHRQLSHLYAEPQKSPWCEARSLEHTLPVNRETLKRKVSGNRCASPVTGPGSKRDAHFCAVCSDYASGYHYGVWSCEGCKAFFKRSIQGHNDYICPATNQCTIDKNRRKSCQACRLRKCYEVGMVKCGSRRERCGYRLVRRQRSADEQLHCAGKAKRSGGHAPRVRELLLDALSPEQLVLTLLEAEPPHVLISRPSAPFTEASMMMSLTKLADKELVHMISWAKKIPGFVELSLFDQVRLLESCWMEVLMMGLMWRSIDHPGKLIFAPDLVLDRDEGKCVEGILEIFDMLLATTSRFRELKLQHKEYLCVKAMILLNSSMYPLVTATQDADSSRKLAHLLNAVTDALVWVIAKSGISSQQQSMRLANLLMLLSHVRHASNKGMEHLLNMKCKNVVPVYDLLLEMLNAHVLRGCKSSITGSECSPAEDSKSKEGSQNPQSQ

Cytochrome P450 1A2 = target: T2, Cytochrome P450 1A2 (Homo sapiens, UniProt P05177);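 further: PubChem cytochrome P450 panel assay, CYP1A2 panel member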
T2 sequence (P05177 whole entry): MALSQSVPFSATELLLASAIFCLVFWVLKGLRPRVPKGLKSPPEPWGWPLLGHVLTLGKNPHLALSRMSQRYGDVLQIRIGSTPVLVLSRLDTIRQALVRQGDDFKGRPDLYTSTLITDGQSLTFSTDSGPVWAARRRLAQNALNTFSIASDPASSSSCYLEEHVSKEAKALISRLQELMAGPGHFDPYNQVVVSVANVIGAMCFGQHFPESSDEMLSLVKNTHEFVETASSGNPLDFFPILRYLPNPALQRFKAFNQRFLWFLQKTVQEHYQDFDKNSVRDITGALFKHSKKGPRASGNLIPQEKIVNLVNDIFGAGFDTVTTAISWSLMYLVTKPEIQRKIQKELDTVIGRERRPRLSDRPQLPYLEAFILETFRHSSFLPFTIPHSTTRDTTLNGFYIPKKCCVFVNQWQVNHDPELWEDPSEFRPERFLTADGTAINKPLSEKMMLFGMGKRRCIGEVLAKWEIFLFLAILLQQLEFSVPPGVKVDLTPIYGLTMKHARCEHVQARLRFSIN

Cytochrome P450 2C9 = Cytochrome P450 2C9 (Homo sapiens, UniProt P11712)
Sequence of Cytochrome P450 2C9 (P11712 whole entry): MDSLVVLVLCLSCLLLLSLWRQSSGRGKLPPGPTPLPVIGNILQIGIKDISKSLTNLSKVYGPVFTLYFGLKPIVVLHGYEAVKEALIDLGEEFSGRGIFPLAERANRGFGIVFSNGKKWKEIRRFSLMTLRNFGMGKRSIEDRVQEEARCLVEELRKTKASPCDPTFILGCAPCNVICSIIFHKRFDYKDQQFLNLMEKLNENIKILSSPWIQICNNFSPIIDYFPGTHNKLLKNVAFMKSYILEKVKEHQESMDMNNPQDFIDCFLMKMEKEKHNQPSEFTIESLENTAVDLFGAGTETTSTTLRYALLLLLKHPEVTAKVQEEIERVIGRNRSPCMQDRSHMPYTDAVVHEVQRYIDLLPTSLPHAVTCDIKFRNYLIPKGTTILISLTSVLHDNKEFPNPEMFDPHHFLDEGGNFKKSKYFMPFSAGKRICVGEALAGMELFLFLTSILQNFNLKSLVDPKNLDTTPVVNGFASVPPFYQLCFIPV

[16] = target: T3, Lytic switch protein BZLF1 (Epstein-Barr virus (strain B95-8) (HHV-4) (Human herpesvirus 4), UniProt P03206); experiment: inhibition of BZLF1 ZTA DNA binding – biochemical, fluorescence polarization, Epstein-Barr virus, 1536-well, counter-screen for EBNA-1 inhibitor project, dose response (AID 2377); parameters: species or system human gammaherpesvirus 4;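 further: fluorescence polarization of Cy5-labelled ZRE DNA probe bound by purified Zta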
T3 sequence (P03206 whole entry): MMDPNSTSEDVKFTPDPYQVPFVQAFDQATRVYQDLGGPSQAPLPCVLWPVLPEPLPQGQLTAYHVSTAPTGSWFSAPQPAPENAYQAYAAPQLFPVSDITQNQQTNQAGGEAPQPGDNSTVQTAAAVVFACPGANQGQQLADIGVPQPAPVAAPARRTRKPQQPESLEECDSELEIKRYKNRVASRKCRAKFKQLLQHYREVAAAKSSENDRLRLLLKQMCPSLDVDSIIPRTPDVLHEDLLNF

[17] = target: T4, Epstein-Barr nuclear antigen 1 (Epstein-Barr virus (strain B95-8) (HHV-4) (Human herpesvirus 4), UniProt P03211); experiment: inhibition of EBV nuclear antigen 1 DNA binding – biochemical, fluorescence polarization, 1536-well, dose response (AID 2381); parameters: species or system human gammaherpesvirus 4;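 further: fluorescence polarization of a Cy5 DNA probe bound by EBNA-1 protein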
T4 sequence (P03211 whole entry): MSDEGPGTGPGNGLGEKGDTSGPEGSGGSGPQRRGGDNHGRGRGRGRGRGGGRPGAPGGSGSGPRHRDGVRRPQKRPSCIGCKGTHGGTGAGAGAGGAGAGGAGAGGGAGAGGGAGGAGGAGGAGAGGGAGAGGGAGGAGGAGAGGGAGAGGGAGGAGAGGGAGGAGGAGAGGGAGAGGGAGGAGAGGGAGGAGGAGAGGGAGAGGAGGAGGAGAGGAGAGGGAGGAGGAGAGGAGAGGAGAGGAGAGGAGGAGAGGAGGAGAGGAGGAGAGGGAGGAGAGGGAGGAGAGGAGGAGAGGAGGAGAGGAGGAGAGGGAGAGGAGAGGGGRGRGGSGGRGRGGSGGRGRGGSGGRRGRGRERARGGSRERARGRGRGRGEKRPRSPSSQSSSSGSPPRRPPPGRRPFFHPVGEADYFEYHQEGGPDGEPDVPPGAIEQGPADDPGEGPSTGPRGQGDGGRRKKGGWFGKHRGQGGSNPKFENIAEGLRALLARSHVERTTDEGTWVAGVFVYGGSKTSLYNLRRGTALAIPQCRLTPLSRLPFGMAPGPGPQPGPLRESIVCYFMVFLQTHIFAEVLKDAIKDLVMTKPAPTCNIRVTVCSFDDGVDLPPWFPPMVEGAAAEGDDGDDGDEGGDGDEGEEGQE

[18] = target: Peroxisome proliferator-activated receptor gamma/Nuclear receptor coactivator 3 (Homo sapiens, UniProt P37231); format: functional;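 further: agonist potency for raising coactivator recruitment to the receptor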
[19] = target: Peroxisome proliferator-activated receptor gamma/Nuclear receptor coactivator 2 (Homo sapiens, UniProt P37231); format: functional;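 further: agonist potency for raising coactivator recruitment to the receptor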
[20] = target: Peroxisome proliferator-activated receptor gamma/Nuclear receptor coactivator 1 (Homo sapiens, UniProt P37231); format: functional;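 further: agonist potency as compounds enhance coactivator SRC-1 recruitment to PPARgamma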
[21] = target: T1, Oxysterols receptor LXR-beta; experiment: LXR agonists, Gal4 luciferase reporter, dose response, counter-screen for ssDAF-12 agonist project, cell-based, luminescence, HEK293, S. stercoralis campaign (AID 720737); format: functional; details: read-out: IC50 (the source's name)
[22] = Luminescence-based cell-based high throughput dose response assay to identify activators of the DAF-12 from the parasite S. stercoralis (ssDAF-12).; format: functional

COc1ccc(-n2ncc3c(N(C)C4CCCCC4)ncnc32)cc1
AC50 [1]: > 52 µM (inactive)
IC50 (HEK293 [2]): 10.7 µM (inactive)
EC50 [3]: < 0.31 µM (inactive)
IC50 (HEK293 [4]): 8.11 µM (active)
AC50 [5]: 0.246 µM (active)
EC50 (HEK293 [6]): 7.56 µM (active)
AC50 [7]: 0.578 µM (active)
IC50 (HEK293 [8]): > 20 µM (inactive)
IC50 (HEK293 [9]): > 20 µM (inactive)

O=C(NC(C(=O)N/N=C/c1cccc2ccccc12)c1nnc(O)c2ccccc12)c1ccccc1 (configuration not stated)
IC50 [10]: > 69.5 µM (inactive)
IC50 [11]: > 69.5 µM (inactive)
CC50 [12]: > 40 µM (active)

CN(C)c1cc(C(F)(F)F)nc(-c2ccccn2)n1
EC50 [13]: 4.16 µM (not active)

CCOC(=O)c1s/c(=N\C(=O)c2ccc(Cl)s2)n(C)c1C
EC50 (cells): > 67.5 µM (inactive)
EC50 [14]: > 67.5 µM (inactive)

CC(=O)c1c(COC(=O)c2ccc(Cl)cc2)nc2ccccc2[n+]1[O-]
EC50 [15]: > 120 µM (not active)

CCN1CCN(Cc2ccc(NC(=O)Nc3cccs3)cc2)CC1
IC50 (Estrogen receptor beta): 0.41 µM (not active)
AC50 (Cytochrome P450 1A2): 12.6 µM (inconclusive)
AC50 (Cytochrome P450 2C9): 7.94 µM (inconclusive)

COc1ccc(C2C(C(=O)N3CCN(C)CC3)c3cc(OC)c(OC)cc3C(=O)N2C)cc1 (configuration not stated)
EC50 [13]: 2.94 µM (not active)

Cc1cccc(N(C(=O)c2snc(C(N)=O)c2N)C(C(=O)NCC2CCCO2)c2ccc(N(C)C)cc2)c1C (configuration not stated)
IC50 [16]: > 111 µM (not active)
IC50 [17]: 2.73 µM (active)

COc1ccc(NCCNc2ccc(OC)cc2)cc1
EC50 [18]: > 79.4 µM (not active)
EC50 [19]: > 79.4 µM (not active)
EC50 [20]: > 79.4 µM (not active)

Fc1ccccc1-c1ccc(/C=N/Nc2nc3ccccc3[nH]2)o1
EC50 [21]: > 67.5 µM (inactive)
IC50 [22]: > 67.5 µM (inactive)

— ChEMBL document CHEMBL1201862, “PubChem BioAssay data set” (2004)
